Source: patent publication US20220389008A1, “4-QUINOLINONE ANTIBACTERIAL COMPOUNDS” (Janssen Sciences Ireland Unlimited Company, priority 2019, published 2022)

The molecules below were run on Mitochondrial toxicity (Glu/Gal) (assay: Mitochondrial toxicity (Glu/Gal) assay). Settings: galactose medium; read-out: IC50, gal.
Assay type: cell-based
Parameters: key to Score: “negative” means that in the test, it was found to have low mitotoxicity (and hence no mitotoxicity alerts); “positive” means that there were some mitotoxicity alerts; “inconclusive” means that no accurate conclusion could be drawn
From the text: The compounds of the invention/examples may have advantages associated with in vitro potency, kill kinetics (i.e. bactericidal effect) in vitro, PK properties, food effect, safety/toxicity (including liver toxicity, coagulation, 5-LO oxygenase), metabolic stability, Ames II negativity, MNT negativity, aqueous based solubility (and ability to formulate) and/or cardiovascular effect e.g. on animals (e.g. anesthetized guinea pig). The data below that was generated/calculated may be obtained using standard methods/assays, for instance that are available in the literature or which may be performed by a supplier (e.g. Microsomal Stability Assay—Cyprotex, Mitochondrial toxicity (Glu/Gal) assay—Cyprotex, as well as literature CYP cocktail inhibition assays).

SMILES	IC50 [µM]
Cc1c(-c2nc3ccc(-c4ccc(OC(F)(F)F)c(F)c4)cn3n2)[nH]c2ccccc2c1=O [Compound 1]	19.8
CNC(=O)c1c(-c2nc3ccc(-c4ccc(OC(F)(F)F)cc4)cn3n2)[nH]c2ccccc2c1=O [Compound 50]	86.5

Same assay, conditions: glucose medium; read-out: IC50, glu

SMILES	IC50 [µM]
Cc1c(-c2nc3ccc(-c4ccc(OC(F)(F)F)c(F)c4)cn3n2)[nH]c2ccccc2c1=O [Compound 1]	100
CNC(=O)c1c(-c2nc3ccc(-c4ccc(OC(F)(F)F)cc4)cn3n2)[nH]c2ccccc2c1=O [Compound 50]	100

Same assay, conditions: mitotoxicity score

SMILES	Score
Cc1c(-c2nc3ccc(-c4ccc(OC(F)(F)F)c(F)c4)cn3n2)[nH]c2ccccc2c1=O [Compound 1]	positive
CNC(=O)c1c(-c2nc3ccc(-c4ccc(OC(F)(F)F)cc4)cn3n2)[nH]c2ccccc2c1=O [Compound 50]	negative

Same assay, conditions: ratio glu/gal

SMILES	Δ IC50,glu/IC50,gal
Cc1c(-c2nc3ccc(-c4ccc(OC(F)(F)F)c(F)c4)cn3n2)[nH]c2ccccc2c1=O [Compound 1]	[x]5.06
CNC(=O)c1c(-c2nc3ccc(-c4ccc(OC(F)(F)F)cc4)cn3n2)[nH]c2ccccc2c1=O [Compound 50]	[x]1.16

What follows are molecules tested on Mycobacterium tuberculosis strain H37Rv ΔctaE-ΔqcrCAB (assay: microbe, parasite or virus in culture). Settings: 240 h.
Assay type: cell-based

SMILES	IC50 [µM]
Cc1c(-c2nc3ccc(-c4ccc(OC(F)(F)F)c(F)c4)cn3n2)[nH]c2ccccc2c1=O [Compound 1]	1.63
Cc1c(-c2nc3ccc(N4CCCC(C(F)(F)F)C4)cn3n2)[nH]c2ccccc2c1=O (centres unmarked) [Compound 9]	1.31
Cc1c(-c2nc3ccc(-c4ccc(C(F)(F)F)s4)cn3n2)[nH]c2ccccc2c1=O [Compound 11]	2.6
Cc1noc(-c2ccc3nc(-c4[nH]c5ccccc5c(=O)c4C)nn3c2)n1 [Compound 17]	> 5
Cc1c(-c2cn3cc(-c4ccc(OC(F)(F)F)cc4)ccc3n2)[nH]c2ccccc2c1=O [Compound 35]	2.39
Cc1c(-c2nc3ccc(-c4nc(C(F)(F)F)ns4)cn3n2)[nH]c2ccccc2c1=O [Compound 38]	4.88
Cc1c(-c2nc3ccc(-c4nc(C(F)(F)F)nn4C)cn3n2)[nH]c2ccccc2c1=O [Compound 49]	> 50
Cc1c(-c2nc3ccc(N4CCOCC4)cn3n2)[nH]c2ccccc2c1=O [Compound 54]	5.94
Cc1csc(-c2ccc3nc(-c4[nH]c5ccccc5c(=O)c4C)nn3c2)n1 [Compound 71]	> 10
Cc1c(-c2nc3ccc(-c4cn(C)nn4)cn3n2)[nH]c2ccccc2c1=O [Compound 76]	> 5
Cc1c(-c2nc3ccc(-c4cc(F)cc(F)c4)cn3n2)[nH]c2ccccc2c1=O [Compound 88]	5.35
COc1cccc(-c2ccc3nc(-c4[nH]c5ccccc5c(=O)c4C)nn3c2)c1 [Compound 89]	0.574
Cc1ccc(-c2ccc3nc(-c4[nH]c5ccccc5c(=O)c4C)nn3c2)o1 [Compound 91]	1.74
COc1ccc(-c2ccc3nc(-c4[nH]c5ccccc5c(=O)c4C)nn3c2)cc1F [Compound 98]	1.98
Cc1c(-c2nc3ccc(-c4cccc(C(F)F)c4)cn3n2)[nH]c2ccccc2c1=O [Compound 107]	3.32
Cc1c(-c2nc3ccc(-c4cccc(CC(F)F)c4)cn3n2)[nH]c2ccccc2c1=O [Compound 112]	1.85
Cc1c(-c2nc3ccc(-c4ccnn4C)cn3n2)[nH]c2ccccc2c1=O [Compound 116]	4.59
C/C=C(\C=C/C1=NC(c2[nH]c3ccccc3c(=O)c2C)=NC(CC)C1)c1ccc(OC)c(OC)c1 (centres unmarked) [Compound 120]	0.697
Cc1c(-c2nc3ccc(-c4ccc(C(F)(F)F)c(F)c4)cn3n2)[nH]c2ccccc2c1=O [Compound 123]	4.14

The molecules below were run on Mycobacterium tuberculosis (strain H37Ra), cyt bd (assay: not given). Settings: Mtb H37Ra; test compound 10 μM added after Compound X 0.9 μM.

SMILES	(i) % OCR after cyt bd inhibitor
Cc1c(-c2nc3ccc(-c4ccc(OC(F)(F)F)c(F)c4)cn3n2)[nH]c2ccccc2c1=O [Compound 1]	26.9%
Cc1c(-c2nc3ccc(-c4ccc(OC(F)(F)F)cc4)cn3n2)[nH]c2ccc(F)cc2c1=O [Compound 3]	28.75%
Cc1c(-c2nc3ccc(N4CCCC(C(F)(F)F)C4)cn3n2)[nH]c2ccccc2c1=O (centres unmarked) [Compound 9]	58.71%
Cc1c(-c2nc3ccc(-c4ccc(F)c(F)c4)cn3n2)[nH]c2ccccc2c1=O [Compound 10]	43.4%
Cc1c(-c2nc3ccc(-c4ccc(C(F)(F)F)s4)cn3n2)[nH]c2ccccc2c1=O [Compound 11]	62.79%
Cc1noc(-c2ccc3nc(-c4[nH]c5ccccc5c(=O)c4C)nn3c2)n1 [Compound 17]	98.64%
Cc1c(-c2cn3cc(-c4ccc(OC(F)(F)F)cc4)ccc3n2)[nH]c2ccccc2c1=O [Compound 35]	102.9%
Cc1c(-c2nc3ccc(-c4ccc(F)cc4)cn3n2)[nH]c2ccccc2c1=O [Compound 36]	88.6%
Cc1c(-c2nc3ccc(-c4ncc(C(F)(F)F)s4)cn3n2)[nH]c2ccccc2c1=O [Compound 37]	93.8%
Cc1c(-c2nc3ccc(-c4nc(C(F)(F)F)ns4)cn3n2)[nH]c2ccccc2c1=O [Compound 38]	95.63%
Cc1c(-c2nc3ccc(N4CCC(C(F)(F)F)CC4)cn3n2)[nH]c2ccccc2c1=O [Compound 47]	99.34%
Cc1c(-c2nc3ccc(-c4nc(C(F)(F)F)nn4C)cn3n2)[nH]c2ccccc2c1=O [Compound 49]	101.3%
CNC(=O)c1c(-c2nc3ccc(-c4ccc(OC(F)(F)F)cc4)cn3n2)[nH]c2ccccc2c1=O [Compound 50]	114.33%
Cc1c(-c2nc3ccc(-c4nnc(C(F)(F)F)s4)cn3n2)[nH]c2ccccc2c1=O [Compound 59]	107.31%
Cc1c(-c2nc3ccc(-c4ccc(F)nc4)cn3n2)[nH]c2ccccc2c1=O [Compound 61]	108%
Cc1c(-c2nc3ccc(-c4ccc(OC(F)(F)F)cc4)cn3n2)[nH]c2c(F)cc(F)cc2c1=O [Compound 64]	109.65%
COc1cc2[nH]c(-c3nc4ccc(-c5ccc(OC(F)(F)F)cc5)cn4n3)c(C)c(=O)c2cc1Cl [Compound 69]	150.98%
Cc1csc(-c2ccc3nc(-c4[nH]c5ccccc5c(=O)c4C)nn3c2)n1 [Compound 71]	95.71%
Cc1c(-c2nc3ccc(-c4cn(C)nn4)cn3n2)[nH]c2ccccc2c1=O [Compound 76]	111.72%
COc1cc2c(=O)c(C)c(-c3nc4ccc(-c5ccc(OC(F)(F)F)cc5)cn4n3)[nH]c2cc1Cl [Compound 78]	135.74%
COc1cccc(-c2ccc3nc(-c4[nH]c5ccccc5c(=O)c4C)nn3c2)c1 [Compound 89]	55,82%
Cc1ccc(-c2ccc3nc(-c4[nH]c5ccccc5c(=O)c4C)nn3c2)o1 [Compound 91]	49,11%
COc1ccc(-c2ccc3nc(-c4[nH]c5ccccc5c(=O)c4C)nn3c2)cc1F [Compound 98]	54,17%
Cc1c(-c2nc3ccc(-c4cccc(C(F)F)c4)cn3n2)[nH]c2ccccc2c1=O [Compound 107]	58,92%
Cc1c(-c2nc3ccc(-c4cccc(CC(F)F)c4)cn3n2)[nH]c2ccccc2c1=O [Compound 112]	31,36%
Cc1c(-c2nc3ccc(-c4ccnn4C)cn3n2)[nH]c2ccccc2c1=O [Compound 116]	72,01%
C/C=C(\C=C/C1=NC(c2[nH]c3ccccc3c(=O)c2C)=NC(CC)C1)c1ccc(OC)c(OC)c1 (centres unmarked) [Compound 120]	59,83%
Cc1c(-c2nc3ccc(-c4ccc(C(F)(F)F)c(F)c4)cn3n2)[nH]c2ccccc2c1=O [Compound 123]	50,75%

Same assay, conditions: Mtb H37Ra; test compound 10 μM after Compound X 0.9 μM, then CCCP 1 μM

SMILES	(ii) % OCR after cccp
Cc1c(-c2nc3ccc(-c4ccc(OC(F)(F)F)c(F)c4)cn3n2)[nH]c2ccccc2c1=O [Compound 1]	35.1%
Cc1c(-c2nc3ccc(-c4ccc(OC(F)(F)F)cc4)cn3n2)[nH]c2ccc(F)cc2c1=O [Compound 3]	38.75%
Cc1c(-c2nc3ccc(N4CCCC(C(F)(F)F)C4)cn3n2)[nH]c2ccccc2c1=O (centres unmarked) [Compound 9]	62.22%
Cc1c(-c2nc3ccc(-c4ccc(F)c(F)c4)cn3n2)[nH]c2ccccc2c1=O [Compound 10]	63.9%
Cc1c(-c2nc3ccc(-c4ccc(C(F)(F)F)s4)cn3n2)[nH]c2ccccc2c1=O [Compound 11]	69.17%
Cc1noc(-c2ccc3nc(-c4[nH]c5ccccc5c(=O)c4C)nn3c2)n1 [Compound 17]	97.68%
Cc1c(-c2cn3cc(-c4ccc(OC(F)(F)F)cc4)ccc3n2)[nH]c2ccccc2c1=O [Compound 35]	129.2%
Cc1c(-c2nc3ccc(-c4ccc(F)cc4)cn3n2)[nH]c2ccccc2c1=O [Compound 36]	130.6%
Cc1c(-c2nc3ccc(-c4ncc(C(F)(F)F)s4)cn3n2)[nH]c2ccccc2c1=O [Compound 37]	132.68%
Cc1c(-c2nc3ccc(-c4nc(C(F)(F)F)ns4)cn3n2)[nH]c2ccccc2c1=O [Compound 38]	132.88%
Cc1c(-c2nc3ccc(N4CCC(C(F)(F)F)CC4)cn3n2)[nH]c2ccccc2c1=O [Compound 47]	141.23%
Cc1c(-c2nc3ccc(-c4nc(C(F)(F)F)nn4C)cn3n2)[nH]c2ccccc2c1=O [Compound 49]	143.58%
CNC(=O)c1c(-c2nc3ccc(-c4ccc(OC(F)(F)F)cc4)cn3n2)[nH]c2ccccc2c1=O [Compound 50]	144.07%
Cc1c(-c2nc3ccc(-c4nnc(C(F)(F)F)s4)cn3n2)[nH]c2ccccc2c1=O [Compound 59]	154.34%
Cc1c(-c2nc3ccc(-c4ccc(F)nc4)cn3n2)[nH]c2ccccc2c1=O [Compound 61]	155.2%
Cc1c(-c2nc3ccc(-c4ccc(OC(F)(F)F)cc4)cn3n2)[nH]c2c(F)cc(F)cc2c1=O [Compound 64]	158.95%
COc1cc2[nH]c(-c3nc4ccc(-c5ccc(OC(F)(F)F)cc5)cn4n3)c(C)c(=O)c2cc1Cl [Compound 69]	165.1%
Cc1csc(-c2ccc3nc(-c4[nH]c5ccccc5c(=O)c4C)nn3c2)n1 [Compound 71]	167.55%
Cc1c(-c2nc3ccc(-c4cn(C)nn4)cn3n2)[nH]c2ccccc2c1=O [Compound 76]	175.05%
COc1cc2c(=O)c(C)c(-c3nc4ccc(-c5ccc(OC(F)(F)F)cc5)cn4n3)[nH]c2cc1Cl [Compound 78]	178.3%
Cc1c(-c2nc3ccc(-c4cc(F)cc(F)c4)cn3n2)[nH]c2ccccc2c1=O [Compound 88]	76%
COc1cccc(-c2ccc3nc(-c4[nH]c5ccccc5c(=O)c4C)nn3c2)c1 [Compound 89]	62,29%
Cc1ccc(-c2ccc3nc(-c4[nH]c5ccccc5c(=O)c4C)nn3c2)o1 [Compound 91]	56,23%
COc1ccc(-c2ccc3nc(-c4[nH]c5ccccc5c(=O)c4C)nn3c2)cc1F [Compound 98]	73,86%
Cc1c(-c2nc3ccc(-c4cccc(C(F)F)c4)cn3n2)[nH]c2ccccc2c1=O [Compound 107]	76,98%
Cc1c(-c2nc3ccc(-c4cccc(CC(F)F)c4)cn3n2)[nH]c2ccccc2c1=O [Compound 112]	38,59%
Cc1c(-c2nc3ccc(-c4ccnn4C)cn3n2)[nH]c2ccccc2c1=O [Compound 116]	85,87%
C/C=C(\C=C/C1=NC(c2[nH]c3ccccc3c(=O)c2C)=NC(CC)C1)c1ccc(OC)c(OC)c1 (centres unmarked) [Compound 120]	89,24%
